Like-named read-outs stand apart in the source and are kept apart here.
Tests used:
Ad5 = assay: microbe, parasite or virus in culture; assay type: cell-based, human adenovirus
[1] = test system: coxsackievirus A24 variant (CVA24v); assay: Coxsackievirus fluorescent focus assay in HCE cells; assay type: cell-based; design: key: +++: No visible fluorescence was observed; ++: some infected cells were detected; settings: 18 h
Procedure: Approximately 2×10^5 human corneal epithelial (HCE) cells were plated in 24-well plates the day prior infection. On the day of infection the media was removed and was replaced with media containing 70 virus particles of CVA24v per cell and serial dilutions of compound 35j, ranging from 50- to 6.25 μM. After 18 h of incubation at 37° C. in 5% CO2, the cells were fixed using ice-cold 100% methanol for 5 min. Thereafter, the cells were incubated with a monoclonal mouse anti-VP1 structural protein antibody (clone 5-D8/1, DakoCytomation) diluted 1:200 in PBS, for 1 h in RT. The cells were then washed with PBS and incubated with FITC labeled anti-mouse secondary antibody (DakoCytomation), diluted 1:100 for 1 h, RT, in the dark. Further, unbound antibody was washed away in PBS and the cells were examined in fluorescent microscope.

[2] = Cellular toxicity of select compounds (% dead cells, CC50); assay type: cell-based; settings: conclusions
cells = assay: as above; assay type: cell-based; settings: 24 h

For `O=C(Nc1cc(F)c(F)cc1C(=O)Nc1ccccc1C(=O)O)c1ccccc1F` [Compound 35j, 2-[4,5-difluoro-2-(2-fluorobenzoylamino)-benzoylamino]benzoic acid], the toxicity/activity selectivity index (Ad5; CC50/EC50) was 890, the EC50 (Ad5; Human adenovirus sp., A549, read-out: EC50-value) was 300 nM and the EC50 (Ad5; unidentified adenovirus, A549) was 270 nM. For the same compound, the inhibition at 5 µM (Ad5; unidentified adenovirus, A549, read-out: % Inh. at 5 μM) was 94 ± 3%, the inhibition at 15 µM (Ad5; unidentified adenovirus, A549, read-out: % Inh. at 15 μM) was 93 ± 2% and the “Relative inhibition of CVA24v” value ([1]; 6.25 μM) was “++”. For the same compound, the “Relative inhibition of CVA24v” value ([1]; 12.5 μM) was “++”, the “Relative inhibition of CVA24v” value ([1]; 25 μM) was “+++” and the “Relative inhibition of CVA24v” value ([1]; 50 μM) was “+++”. The CC50 [2] was 240000 nM, the “Toxicity at 30 μM (% dead cells after 24 h)” value (cells; 30 μM) was 6 ± 4% and the “Toxicity at 60 μM (% dead cells after 24 h)” value (cells; 60 μM) was 16 ± 9%.
